The results in this text go back to ChEMBL document CHEMBL3351762, “The fungal natural product (1S,3S)-austrocortirubin induces DNA damage in HCT116 cells via a mechanism unique from other DNA damaging agents” (Bioorg Med Chem Lett, 2015).

One may read the IC50 as the concentration needed to halve the response being measured. Higher therefore signals weaker potency.

The structures appear in SMILES notation. Calls of active or inactive are those of the source. The calls are words filed in the database; no cut-off is given here. Some results are limits rather than exact numbers.

Test [1] in a line: Cytotoxicity against human HCT116 cells after 72 hrs by cell counting Kit-8 assay. Type of test: functional, cell-based. Conditions: HCT-116, 72 h. In general terms: Tetrazolium assays rely on reduction of a dye to a coloured formazan, in cell work by metabolically active cells.
Test [2] has as its system HCT-116. Briefly: Induction of apoptosis in human HCT116 cells assessed as early-stage apoptotic cells at 15 uM after 24 to 48 hrs by Annexin V/PI-FITC staining based flow cytometry. It counts as functional. For orientation: A flow cytometer gives signals particle by particle.
Test [3] is described as follows: Cell cycle arrest in human HCT116 cells assessed as increase in accumulation at S phase at 15 to 30 uM after 24 by flow cytometry. It counts as functional, cell-based. Conditions: HCT-116.
The nature of test [4]: Cell cycle arrest in human HCT116 cells assessed as increase in accumulation at G2/M phase at 15 to 30 uM after 24 by flow cytometry. It counts as functional, cell-based. To be noted: HCT-116.
Test [5] relates to HCT-116. Description: Induction of DNA damage in human HCT116 cells at S phase at 15 to 30 uM after 24 hrs by gamma-H2AX-staining based-flow cytometry. It counts as functional.
Test [6] relates to HCT-116. Description: Induction of DNA damage in human HCT116 cells at G2/M phase at 15 to 30 uM after 24 hrs by gamma-H2AX-staining based-flow cytometry. It counts as functional.
Test [7] is described as follows: Cell cycle arrest in human HCT116 cells assessed as cells at M phase at 15 to 30 uM after 24 by flow cytometry. Type of test: functional, cell-based. To be noted: HCT-116.
A short description of test [8]: Cell cycle arrest in human HCT116 cells assessed as increase in accumulation at S phase at 20 uM after 24 by flow cytometry. It counts as functional, cell-based. Conditions: HCT-116.
Test [9] can be described thus: Cell cycle arrest in human HCT116 cells assessed as increase in accumulation at G2/M phase at 20 uM after 24 by flow cytometry. It counts as functional, cell-based. Conditions: HCT-116.
Test [10] concerns HCT-116. Briefly: Induction of apoptosis in human HCT116 cells assessed as increase in mitosis at 20 uM after 24 by flow cytometry. It counts as functional.
The nature of test [11]: Cell cycle arrest in human HCT116 cells assessed as decrease in accumulation at S phase at 100 to 200 uM after 24 by flow cytometry. Type of test: functional, cell-based. To be noted: HCT-116.
A short description of test [12]: Cell cycle arrest in human HCT116 cells assessed as increase in accumulation at G2/M phase at 100 to 200 uM after 24 by flow cytometry. Type of test: functional, cell-based. To be noted: HCT-116.
In test [13] the test system is HCT-116. Description: Induction of DNA damage in human HCT116 cells at S phase at 100 to 200 uM after 24 hrs by gamma-H2AX-staining based-flow cytometry. It counts as functional.
The subject of test [14] is HCT-116. Briefly: Induction of DNA damage in human HCT116 cells at G2/M phase at 100 to 200 uM after 24 hrs by gamma-H2AX-staining based-flow cytometry. Type of test: functional.
The nature of test [15]: Cell cycle arrest in human HCT116 cells assessed as cells at M phase at 100 to 200 nM after 24 by flow cytometry. To be noted: HCT-116.
Test [16] relates to HCT-116. Description: Induction of DNA damage in human HCT116 cells at G0/G1 phase at 100 to 200 nM after 24 hrs by gamma-H2AX-staining based-flow cytometry.

For the molecule `COc1cc(O)c2c(c1O)C(=O)c1cc(C)ccc1C2=O` [AUSTROCORTIRUBIN], the IC50 in [1] is above 50 µM.
Same read-out and setting: with `COC1=CC(=O)c2c(O)c3c(c(O)c2C1=O)C[C@](C)(O)CC3` the figure was 26.8 µM.
Same read-out and setting: with `C[C@]1(O)Cc2c(O)c3c(c(O)c2[C@@H](O)C1)C(=O)C=C(NCCc1ccccc1)C3=O` the figure was 16 µM.
For `C[C@]1(O)Cc2c(O)c3c(c(O)c2[C@@H](O)C1)C(=O)C=C(NCCc1ccc(Cl)cc1)C3=O`, in test [1], 10.1 µM corresponded to half-maximal inhibition (IC50).
In turn, `COC1=CC(=O)c2c(O)c3c(c(O)c2C1=O)C[C@@](C)(O)C[C@@H]3O` showed an IC50 in [1] of 23.7 µM.
`COC1=CC(=O)c2c(O)c3c(c(O)c2C1=O)C[C@](C)(O)C[C@@H]3O` had a half-maximal inhibitory concentration (IC50) in test [1] of 3.7 µM. Also, the Activity is on record as 75% in the test with HCT-116 [2], 90% with HCT-116 [5] and 50% with HCT-116 [6]. Further, the result in test [3] and in [4] was Active. For the same molecule, the result in test [7] was inactive.
In turn, `CC(=O)O[C@H]1C(=O)[C@@]2(C)[C@H]([C@H](OC(=O)c3ccccc3)[C@]3(O)C[C@H](OC(=O)[C@H](O)[C@@H](NC(=O)c4ccccc4)c4ccccc4)C(C)=C1C3(C)C)[C@]1(OC(C)=O)CO[C@@H]1C[C@@H]2O` [PACLITAXEL] showed an IC50 in test [1] of 0.0027 µM. For the same molecule, the outcome in test [8] and in test [9] was Active. The “fold change (FC)” value in the test with HCT-116 [10] is 3.
In turn, `COc1cccc2c1C(=O)c1c(O)c3c(c(O)c1C2=O)C[C@@](O)(C(=O)CO)C[C@@H]3O[C@H]1C[C@H](N)[C@H](O)[C@H](C)O1` [DOXORUBICIN] displayed an IC50 in test [1] of 0.0199 µM. For the same molecule, the result in [11] and in [12] was Active. In addition, the Activity with HCT-116 [13] and with HCT-116 [14] was 50% each time. Also, the result (in test [15]; with HCT-116 [16]) was inactive.
